Source: patent publication US20080171737A1 (Wyeth, priority 2006, published 2008)
Structures can show the parent of a compound that is named as a salt.

Target: T1, human hNET (Homo sapiens, UniProt P23975)
T1 construct: expressed in transfected cells; host or cells: MDCK-Net6 (MDCK cells stably transfected with hNET)
Assay: Functional norepinephrine reuptake assay, Procedure B (6,000 cells/well)
Format: cell-based
Conditions: not given
Method: For screening, 25 μl aliquots of compound solution at a 1 μM or 10 μM final concentration was delivered directly to cells.
For IC50 determinations, stock compounds were prepared at 10 mM from powder. The stock solution was diluted according to compound testing range. […] On the day of assay, 25 μl of compound solution at the specified concentrations were added to the plates containing cells. A DMSO stock of desipramine was prepared at 10 mM in DMSO and diluted for a final concentration of 20 μM to determine the non-specific reuptake.
MDCK-Net6 cells, stably transfected with human hNET (Pacholczyk, 1991), were maintained in growth media [high glucose DMEM (Gibco Cat. 11995), 10% FBS (dialyzed, heat-inactivated, Sigma, dialysed, heat inactivated, Lot# K0922 or equivalent) 1xPen/Strep, and 500 μg/ml G418 (Gibco Cat. 10131)]. Cells were plated at 300,000/T75 flask and cells split twice weekly.
Cells were plated at 50,000 cells/well (Procedure A) or 6,000 cells/well (Procedure B) on day 1 in BD Falcon Microtest 96-well sterile cell culture plates, Optilux White/Clear Bottom TC plate (VWR; # 62406-466 or equivalent) in growth media and maintained in a cell incubator (37° C., 5% CO2). On Day 2, cells were removed from the cell incubator and the growth media is replaced by 200 μl of assay buffer (25 mm HEPES 120 mM NaCL; 5 mM KCl; 2.5 mM CaCl2; 1.2 mM MgSO4; 2 mg/ml glucose (pH 7.4, 37° C.)) containing 0.2 mg/ml ascorbic acid and 1 μM parglyine. For screening, 25 μl of compound in 4% DMSO was added directly to each well and the plate was incubated for 5 minutes (37° C.). […] The reaction is aspirated from the plate and the cells washed with 250 μl of 50 mM Tris Buffer (4° C.). The plates were left to dry for 1 hour. The cells were lysed using 0.25 M NaOH solution then placed on a shake table and vigorously shaken for 10 minutes. After cell lysis, 100 μl of Microscint 20 (PerkinElmer; #87-051101) was added to the plates and the plates were sealed with film tape and replaced on the shake table for a minimum of 10 minutes. The plates were counted in a TopCount counter (PerkinElmer).
% inhibition=[1−((mean cpm test compound wells−mean cpm non-specific wells)/(mean cpm control wells−mean cpm non-specific wells))]×100
For IC50 determination, raw cpm values were generated in a data file from the TopCount counter. The data was organized using the Microsoft Excel and transferred into PRIZM graphing and statistical program, which calculated the estimated IC50 value. Calculation of IC50 values was made using non-linear regression analysis with a sigmoidal dose response with variable slope. The statistical program used wells containing ^3H norepinephrine only as the maximal NE reuptake determinant and wells containing ^3H norepinephrine plus 20 μM desipramine (AHR-9543) as the minimal NE reuptake determinant (non-specific determinant). Estimation of the IC50 value was completed on a log scale and the line was fit between the maximal and minimal NE reuptake values.

T1 sequence (P23975 whole entry): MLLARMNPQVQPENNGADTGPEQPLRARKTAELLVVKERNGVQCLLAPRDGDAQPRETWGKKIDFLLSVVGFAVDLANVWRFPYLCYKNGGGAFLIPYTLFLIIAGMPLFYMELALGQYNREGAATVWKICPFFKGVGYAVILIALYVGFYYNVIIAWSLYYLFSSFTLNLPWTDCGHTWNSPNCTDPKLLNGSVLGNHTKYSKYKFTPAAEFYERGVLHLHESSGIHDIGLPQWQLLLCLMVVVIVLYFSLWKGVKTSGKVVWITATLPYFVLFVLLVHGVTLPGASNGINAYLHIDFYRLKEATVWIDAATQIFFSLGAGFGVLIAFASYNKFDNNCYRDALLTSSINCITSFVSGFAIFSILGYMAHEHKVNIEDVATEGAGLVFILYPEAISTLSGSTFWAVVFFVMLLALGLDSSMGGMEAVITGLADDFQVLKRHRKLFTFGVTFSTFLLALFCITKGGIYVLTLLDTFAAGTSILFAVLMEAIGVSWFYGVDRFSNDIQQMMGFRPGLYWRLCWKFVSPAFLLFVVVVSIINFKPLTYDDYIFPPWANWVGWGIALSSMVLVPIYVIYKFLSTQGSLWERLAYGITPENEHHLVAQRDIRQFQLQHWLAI

Row | SMILES | IC50 [µM]
1 | CNCCC[C@H]1Cc2cc(F)ccc2N(c2ccccc2F)S1(=O)=O (single isomer, unassigned) [Example 109] | 0.093

Same assay, conditions: MDCK-Net6 cells, 6,000 cells/well, 16 nM 3H-norepinephrine; read-out: Procedure B hNET uptake IC50

Row | SMILES | IC50 [µM]
2 | CN(C)CCC1Oc2ccccc2N(c2ccccc2)S1(=O)=O (centres unmarked) [Example 26, 2-(2,2-dioxido-1-phenyl-1H-4,2,1-benzoxathiazin-3-yl)-N,N-dimethylethanamine] | 0.0971
3 | CNCCCC1Cc2cc(F)ccc2N(c2ccccc2OC)S1(=O)=O (racemic) [Example 166, 3-[6-fluoro-1-(2-methoxyphenyl)-2,2-dioxido-3,4-dihydro-1H-2,1-benzothiazin-3-yl]-N-methylpropan-1-amine] | 0.304
4 | CNCCCC1Cc2ccccc2N(c2ccccn2)S1(=O)=O (racemic) [Example 126, 3-(2,2-dioxido-1-pyridin-2-yl-3,4-dihydro-1H-2,1-benzothiazin-3-yl)-N-methylpropan-1-amine] | 0.098
5 | CNCCC[C@@H]1Cc2ccccc2N(c2ccccc2F)S1(=O)=O (single isomer, unassigned) [Example 75] | 0.0037
6 | CNCCC[C@H]1Oc2cc(F)ccc2N(c2ccccc2F)S1(=O)=O (single isomer, unassigned) [Example 131, Hydrochloride] | 0.031
7 | CNCC[C@H](O)[C@@H]1Cc2ccccc2N(c2ccccc2)S1(=O)=O (single isomer, unassigned) [Example 114] | 0.101
8 | CNCCCC1Oc2cc3ccccc3cc2N(c2ccccc2)S1(=O)=O (centres unmarked) [Example 55, 3-(2,2-dioxido-1-phenyl-1H-naphtho[2,3-e][1,3,4]oxathiazin-3-yl)-N-methylpropan-1-amine hydrochloride] | 0.0478
9 | CNCCC[C@H]1Cc2ccccc2N(c2ccc(F)cc2F)S1(=O)=O (single isomer, unassigned) [Example 100] | 0.343
10 | CN(CCCC1Oc2ccccc2N(c2ccccc2)S1(=O)=O)Cc1ccccc1 (centres unmarked) [Example 58, N-benzyl-3-(2,2-dioxido-1-phenyl-1H-4,2,1-benzoxathiazin-3-yl)-N-methylpropan-1-amine hydrochloride] | 0.822
11 | CCCNCCCC1Oc2ccccc2N(c2ccccc2)S1(=O)=O (centres unmarked) [Example 35, 3-(2,2-dioxido-1-phenyl-1H-4,2,1-benzoxathiazin-3-yl)-N-propylpropan-1-amine] | 5.1
12 | CNCCC[C@@H]1Cc2cc(F)ccc2N(c2ccc(F)cc2F)S1(=O)=O (single isomer, unassigned) [Example 113] | 0.034
13 | CNCCC[C@H]1Cc2cc(F)ccc2N(c2ccccc2OC)S1(=O)=O (single isomer, unassigned) [Example 167] | 0.587
14 | CNCCC[C@H]1Cc2ccccc2N(c2ccccn2)S1(=O)=O (single isomer, unassigned) [Example 127] | 1.54
15 | CNCCC[C@@H]1Cc2ccccc2N(c2ccccn2)S1(=O)=O (single isomer, unassigned) [Example 128] | 0.089
16 | O=S1(=O)C(CCN2CCCC2)Oc2ccccc2N1c1ccccc1 (centres unmarked) [Example 29, 1-phenyl-3-(2-pyrrolidin-1-ylethyl)-1H-4,2,1-benzoxathiazine 2,2-dioxide] | 1.64
17 | CN(CCCC1Oc2ccccc2N(c2ccccc2)S1(=O)=O)C1CCCCC1 (centres unmarked) [Example 85, N-[3-(2,2-dioxido-1-phenyl-1H-4,2,1-benzoxathiazin-3-yl)propyl]-N-methylcyclo hexanamine Hydrochloride] | 1.92
18 | CNCCCC1Oc2ccccc2N(c2ccc(F)cc2)S1(=O)=O (centres unmarked) [Example 15, 3-[1-(4-fluorophenyl)-2,2-dioxido-1H-4,2,1-benzoxathiazin-3-yl]-N-methylpropan-1-amine] | 0.492
19 | CNCCCC1Oc2cc(OC)ccc2N(c2ccccc2)S1(=O)=O (centres unmarked) [Example 52, 3-(6-methoxy-2,2-dioxido-1-phenyl-1H-4,2,1-benzoxathiazin-3-yl)-N-methylpropan-1-amine] | 0.607
20 | CCCNCCC1Oc2ccccc2N(c2ccccc2)S1(=O)=O (centres unmarked) [Example 27, N-[2-(2,2-dioxido-1-phenyl-1H-4,2,1-benzoxathiazin-3-yl)ethyl]propan-1-amine] | 4.41
21 | C=C(CNC)CC1Cc2ccccc2N(c2ccccc2)S1(=O)=O (centres unmarked) [Example 132, 2-[(2,2-dioxido-1-phenyl-3,4-dihydro-1H-2,1-benzothiazin-3-yl)methyl]-N-methylprop-2-en-1-amine] | 0.016
22 | CNCCCC1Cc2cc(F)ccc2N(c2ccccc2Cl)S1(=O)=O (racemic) [Example 157, 3-[1-(2-chlorophenyl)-6-fluoro-2,2-dioxido-3,4-dihydro-1H-2,1-benzothiazin-3-yl]-N-methylpropan-1-amine] | 0.128
23 | CNCCC[C@@H]1Oc2cc3ccccc3cc2N(c2ccccc2)S1(=O)=O (single isomer, unassigned) [Example 72, Hydrochloride] | 0.115
24 | CNCCCC1Oc2cccc(F)c2N(c2ccccc2)S1(=O)=O (centres unmarked) [Example 48, 3-(8-fluoro-2,2-dioxido-1-phenyl-1H-4,2,1-benzoxathiazin-3-yl)-N-methylpropan-1-amine] | 0.636
25 | CNCCCC1Cc2ccccc2N(c2ccccc2F)S1(=O)=O (centres unmarked) [Example 89, 3-[1-(2-fluorophenyl)-2,2-dioxido-3,4-dihydro-1H-2,1-benzothiazin-3-yl]-N-methylpropan-1-amine] | 0.018
26 | CNCCCC1Cc2cc(F)ccc2N(c2ccccc2C)S1(=O)=O (racemic) [Example 160, 3-[6-fluoro-1-(2-methylphenyl)-2,2-dioxido-3,4-dihydro-1H-2,1-benzothiazin-3-yl]-N-methylpropan-1-amine] | 0.142
27 | CNCCCC1Cc2cc(F)ccc2N(c2c(F)cccc2F)S1(=O)=O (racemic) [Example 154, 3-[1-(2,6-difluorophenyl)-6-fluoro-2,2-dioxido-3,4-dihydro-1H-2,1-benzothiazin-3-yl]-N-methylpropan-1-amine] | 0.031
28 | NCCNCC1Oc2ccccc2N(c2ccccc2)S1(=O)=O (centres unmarked) [Example 137, N-[(2,2-dioxido-1-phenyl-1H-4,2,1-benzoxathiazin-3-yl)methyl]ethane-1,2-diamine] | 0.193
29 | CNCCC[C@@H]1Cc2cc(F)ccc2N(c2ccccc2C)S1(=O)=O (single isomer, unassigned) [Example 162] | 0.135
30 | CNCCC[C@@H]1Cc2cc(F)ccc2N(c2cc(F)ccc2F)S1(=O)=O (single isomer, unassigned) [Example 153] | 0.043
31 | CNCC[C@H](O)[C@H]1Cc2ccccc2N(c2ccccc2)S1(=O)=O (single isomer, unassigned) [Example 117] | 0.079

Same assay, conditions: MDCK-Net6 cells, 6,000 cells/well; Conc 6000 nM (6 μM); read-out: Procedure B hNET uptake (% inhibition)

Row | SMILES | inhibition at 6 µM [%]
32 | CCN(CCO)CCCC1Oc2ccccc2N(c2ccccc2)S1(=O)=O (centres unmarked) [Example 83, 2-{[3-(2,2-dioxido-1-phenyl-1H-4,2,1-benzoxathiazin-3-yl)propyl](ethyl)amino}ethanol hydrochloride] | 41
33 | CC1CN(CCC2Oc3ccccc3N(c3ccccc3)S2(=O)=O)CC(C)N1 (centres unmarked) [Example 79, 3-[2-(3,5-dimethylpiperazin-1-yl)ethyl]-1-phenyl-1H-4,2,1-benzoxathiazine 2,2-dioxide hydrochloride] | 21
34 | CN(CCCC1Oc2ccccc2N(c2ccccc2)S1(=O)=O)C1CCCCC1 (centres unmarked) [Example 85, N-[3-(2,2-dioxido-1-phenyl-1H-4,2,1-benzoxathiazin-3-yl)propyl]-N-methylcyclo hexanamine Hydrochloride] | 62
35 | CCN(CC)CCCC1Oc2ccccc2N(c2ccccc2)S1(=O)=O (centres unmarked) [Example 82, 3-(2,2-dioxido-1-phenyl-1H-4,2,1-benzoxathiazin-3-yl)-N,N-diethylpropan-1-amine hydrochloride] | 47
36 | O=S1(=O)C(CCCNC2CCCCC2)Oc2ccccc2N1c1ccccc1 (centres unmarked) [Example 43, N-[3-(2,2-dioxido-1-phenyl-1H-4,2,1-benzoxathiazin-3-yl)propyl]cyclohexanamine] | 67
37 | CCCCNCCCC1Oc2ccccc2N(c2ccccc2)S1(=O)=O (centres unmarked) [Example 36, N-[3-(2,2-dioxido-1-phenyl-1H-4,2,1-benzoxathiazin-3-yl)propyl]butan-1-amine] | 57
38 | CN1CCN(CCC2Oc3ccccc3N(c3ccccc3)S2(=O)=O)CC1 (centres unmarked) [Example 30, 3-[2-(4-methylpiperazin-1-yl)ethyl]-1-phenyl-1H-4,2,1-benzoxathiazine 2,2-dioxide] | 35
